# According to PMC10239507, “Development of allosteric and selective CDK2 inhibitors for contraception with negative cooperativity to cyclin binding” (Nature Communications, 2023):
# What was measured:
# Test in all cases: biochemical
# [1] = biological target: T1, 371 kinases (kinase named in each endpoint) (Homo sapiens, UniProt P78368); settings: CK1G2
# T1 construct: purchased Reaction Biology
# [2] = biological target: T2, 371 kinases (kinase named in each endpoint) (Homo sapiens, UniProt Q9NYL2); settings: ZAK/MLTK
# T2 construct: purchased Reaction Biology
# [3] = biological target: T3, 371 kinases (kinase named in each endpoint) (Homo sapiens, UniProt O14965); settings: AURORA A
# T3 construct: purchased Reaction Biology
# [4] = biological target: T4, 371 kinases (kinase named in each endpoint) (Homo sapiens, UniProt P22694); settings: PKACB
# T4 construct: purchased Reaction Biology
# [5] = biological target: T5, 371 kinases (kinase named in each endpoint) (Homo sapiens, UniProt P80192); settings: MLK1/MAP3K9
# T5 construct: purchased Reaction Biology
# [6] = biological target: T6, 371 kinases (kinase named in each endpoint) (Homo sapiens, UniProt P20794); settings: MAK
# T6 construct: purchased Reaction Biology
# [7] = biological target: T7, 371 kinases (kinase named in each endpoint) (Homo sapiens, UniProt Q96GX5); settings: MASTL
# T7 construct: purchased Reaction Biology
# [8] = biological target: T8, 371 kinases (kinase named in each endpoint) (Homo sapiens, UniProt Q7KZI7); settings: MARK2/PAR-1BA
# T8 construct: purchased Reaction Biology
# [9] = biological target: T9, 371 kinases (kinase named in each endpoint) (Homo sapiens, UniProt P15056); settings: BRAF
# T9 construct: purchased Reaction Biology
# [10] = biological target: T10, 371 kinases (kinase named in each endpoint) (Homo sapiens, UniProt Q6IQ55); settings: TTBK2
# T10 construct: purchased Reaction Biology
# [11] = biological target: T11, 371 kinases (kinase named in each endpoint) (Homo sapiens, UniProt Q05513); settings: PKCZETA
# T11 construct: purchased Reaction Biology
# [12] = biological target: T12, 371 kinases (kinase named in each endpoint) (Homo sapiens, UniProt P43405); settings: SYK
# T12 construct: purchased Reaction Biology
# [13] = biological target: T13, 371 kinases (kinase named in each endpoint) (Homo sapiens, UniProt O75716); settings: STK16
# T13 construct: purchased Reaction Biology
# [14] = biological target: T14, 371 kinases (kinase named in each endpoint) (Homo sapiens, UniProt P15735); settings: PHKG2
# T14 construct: purchased Reaction Biology
# [15] = biological target: T15, 371 kinases (kinase named in each endpoint) (Homo sapiens, UniProt Q9HAZ1); settings: CLK4
# T15 construct: purchased Reaction Biology
# [16] = biological target: T16, 371 kinases (kinase named in each endpoint) (Homo sapiens, UniProt Q9UIK4); settings: DAPK2
# T16 construct: purchased Reaction Biology
# [17] = biological target: T17, 371 kinases (kinase named in each endpoint) (Homo sapiens, UniProt Q9UF33); settings: EPHA6
# T17 construct: purchased Reaction Biology
# [18] = biological target: T18, 371 kinases (kinase named in each endpoint) (Homo sapiens, UniProt P00519); settings: ABL1
# T18 construct: purchased Reaction Biology
# [19] = biological target: T19, 371 kinases (kinase named in each endpoint) (Homo sapiens, UniProt Q9H2X6); settings: HIPK2
# T19 construct: purchased Reaction Biology
# [20] = biological target: T20, 371 kinases (kinase named in each endpoint) (Homo sapiens, UniProt Q00535)
# T20 construct: purchased Reaction Biology
# [21] = biological target: T21, 371 kinases (kinase named in each endpoint) (Homo sapiens, UniProt P53779); settings: JNK3
# T21 construct: purchased Reaction Biology
# [22] = biological target: T22, 371 kinases (kinase named in each endpoint) (Homo sapiens, UniProt Q5TCY1); settings: TTBK1
# T22 construct: purchased Reaction Biology
# [23] = biological target: T23, 371 kinases (kinase named in each endpoint) (Homo sapiens, UniProt Q8NEV4); settings: MYO3A
# T23 construct: purchased Reaction Biology
# [24] = biological target: T24, 371 kinases (kinase named in each endpoint) (Homo sapiens, UniProt Q16620); settings: TRKB
# T24 construct: purchased Reaction Biology
# [25] = biological target: T25, 371 kinases (kinase named in each endpoint) (Homo sapiens, UniProt P51617); settings: IRAK1
# T25 construct: purchased Reaction Biology
# [26] = biological target: T26, 371 kinases (kinase named in each endpoint) (Homo sapiens, UniProt P45984); settings: JNK2
# T26 construct: purchased Reaction Biology
# [27] = biological target: T27, 371 kinases (kinase named in each endpoint) (Homo sapiens, UniProt P29376); settings: TYK1/LTK
# T27 construct: purchased Reaction Biology
# [28] = biological target: T28, 371 kinases (kinase named in each endpoint) (Homo sapiens, UniProt Q13164); settings: ERK5/MAPK7
# T28 construct: purchased Reaction Biology
# [29] = biological target: T29, 371 kinases (kinase named in each endpoint) (Homo sapiens, UniProt P36894); settings: ALK3/BMPR1A
# T29 construct: purchased Reaction Biology
# [30] = biological target: T30, 371 kinases (kinase named in each endpoint) (Homo sapiens, UniProt Q9P0L2); settings: MARK1
# T30 construct: purchased Reaction Biology
# [31] = biological target: T31, 371 kinases (kinase named in each endpoint) (Homo sapiens, UniProt Q15746); settings: MLCK/MYLK
# T31 construct: purchased Reaction Biology
# [32] = biological target: T32, 371 kinases (kinase named in each endpoint) (Homo sapiens, UniProt P37173); settings: TGFBR2
# T32 construct: purchased Reaction Biology
# [33] = biological target: T33, 371 kinases (kinase named in each endpoint) (Homo sapiens, UniProt Q99683); settings: ASK1/MAP3K5
# T33 construct: purchased Reaction Biology
# [34] = biological target: T34, 371 kinases (kinase named in each endpoint) (Homo sapiens, UniProt P07332); settings: FES/FPS
# T34 construct: purchased Reaction Biology
# [35] = biological target: T35, 371 kinases (kinase named in each endpoint) (Homo sapiens, UniProt Q15139); settings: PKCMU/PRKD1
# T35 construct: purchased Reaction Biology
# [36] = biological target: T36, 371 kinases (kinase named in each endpoint) (Homo sapiens, UniProt P06493)
# T36 construct: purchased Reaction Biology
# T36 sequence (P06493 whole entry): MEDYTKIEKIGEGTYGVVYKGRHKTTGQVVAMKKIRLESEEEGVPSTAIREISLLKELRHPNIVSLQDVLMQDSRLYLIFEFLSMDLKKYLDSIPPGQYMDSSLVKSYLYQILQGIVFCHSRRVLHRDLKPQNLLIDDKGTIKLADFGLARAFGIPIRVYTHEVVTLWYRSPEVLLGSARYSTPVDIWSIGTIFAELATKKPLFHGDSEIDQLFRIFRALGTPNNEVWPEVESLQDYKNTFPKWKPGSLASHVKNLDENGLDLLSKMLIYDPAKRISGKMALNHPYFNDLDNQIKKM
# T20 sequence (Q00535 whole entry): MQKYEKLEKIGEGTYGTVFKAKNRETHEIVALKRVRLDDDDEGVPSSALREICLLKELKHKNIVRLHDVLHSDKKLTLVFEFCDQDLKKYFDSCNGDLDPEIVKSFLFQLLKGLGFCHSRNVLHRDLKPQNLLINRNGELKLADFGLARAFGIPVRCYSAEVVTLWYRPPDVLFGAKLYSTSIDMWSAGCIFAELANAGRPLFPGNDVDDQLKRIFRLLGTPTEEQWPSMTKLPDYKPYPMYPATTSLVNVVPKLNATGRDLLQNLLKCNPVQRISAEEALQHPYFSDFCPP
# T11 sequence (Q05513 whole entry): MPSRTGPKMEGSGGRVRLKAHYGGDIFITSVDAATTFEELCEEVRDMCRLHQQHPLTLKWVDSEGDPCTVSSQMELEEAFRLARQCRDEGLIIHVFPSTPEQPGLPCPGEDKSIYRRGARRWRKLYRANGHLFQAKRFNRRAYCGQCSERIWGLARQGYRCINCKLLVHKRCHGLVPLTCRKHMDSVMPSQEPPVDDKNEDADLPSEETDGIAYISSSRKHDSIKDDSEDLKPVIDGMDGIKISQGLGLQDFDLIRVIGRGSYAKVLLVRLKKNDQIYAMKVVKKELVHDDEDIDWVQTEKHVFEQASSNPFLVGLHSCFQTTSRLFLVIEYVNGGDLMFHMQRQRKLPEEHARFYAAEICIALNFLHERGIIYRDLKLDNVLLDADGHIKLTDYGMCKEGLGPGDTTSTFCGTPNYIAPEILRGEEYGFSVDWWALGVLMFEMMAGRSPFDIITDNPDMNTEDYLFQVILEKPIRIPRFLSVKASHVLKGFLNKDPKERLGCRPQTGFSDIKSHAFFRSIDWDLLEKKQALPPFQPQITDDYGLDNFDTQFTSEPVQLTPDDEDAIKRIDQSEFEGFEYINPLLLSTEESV
# T32 sequence (P37173 23-567): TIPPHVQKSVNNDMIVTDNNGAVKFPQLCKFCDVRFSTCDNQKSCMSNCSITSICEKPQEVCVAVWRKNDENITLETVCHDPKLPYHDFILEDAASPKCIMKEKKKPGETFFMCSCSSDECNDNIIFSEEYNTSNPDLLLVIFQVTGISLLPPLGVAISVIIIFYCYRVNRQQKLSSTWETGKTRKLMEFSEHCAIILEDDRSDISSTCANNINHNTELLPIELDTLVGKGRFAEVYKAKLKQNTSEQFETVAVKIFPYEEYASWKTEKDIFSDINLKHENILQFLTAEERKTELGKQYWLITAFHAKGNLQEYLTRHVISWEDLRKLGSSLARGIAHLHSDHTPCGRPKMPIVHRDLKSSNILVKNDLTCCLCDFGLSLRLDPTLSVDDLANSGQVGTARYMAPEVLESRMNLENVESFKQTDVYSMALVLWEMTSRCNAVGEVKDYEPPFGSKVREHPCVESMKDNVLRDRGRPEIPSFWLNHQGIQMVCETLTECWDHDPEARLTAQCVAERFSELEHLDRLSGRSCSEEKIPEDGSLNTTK
# T19 sequence (Q9H2X6 whole entry): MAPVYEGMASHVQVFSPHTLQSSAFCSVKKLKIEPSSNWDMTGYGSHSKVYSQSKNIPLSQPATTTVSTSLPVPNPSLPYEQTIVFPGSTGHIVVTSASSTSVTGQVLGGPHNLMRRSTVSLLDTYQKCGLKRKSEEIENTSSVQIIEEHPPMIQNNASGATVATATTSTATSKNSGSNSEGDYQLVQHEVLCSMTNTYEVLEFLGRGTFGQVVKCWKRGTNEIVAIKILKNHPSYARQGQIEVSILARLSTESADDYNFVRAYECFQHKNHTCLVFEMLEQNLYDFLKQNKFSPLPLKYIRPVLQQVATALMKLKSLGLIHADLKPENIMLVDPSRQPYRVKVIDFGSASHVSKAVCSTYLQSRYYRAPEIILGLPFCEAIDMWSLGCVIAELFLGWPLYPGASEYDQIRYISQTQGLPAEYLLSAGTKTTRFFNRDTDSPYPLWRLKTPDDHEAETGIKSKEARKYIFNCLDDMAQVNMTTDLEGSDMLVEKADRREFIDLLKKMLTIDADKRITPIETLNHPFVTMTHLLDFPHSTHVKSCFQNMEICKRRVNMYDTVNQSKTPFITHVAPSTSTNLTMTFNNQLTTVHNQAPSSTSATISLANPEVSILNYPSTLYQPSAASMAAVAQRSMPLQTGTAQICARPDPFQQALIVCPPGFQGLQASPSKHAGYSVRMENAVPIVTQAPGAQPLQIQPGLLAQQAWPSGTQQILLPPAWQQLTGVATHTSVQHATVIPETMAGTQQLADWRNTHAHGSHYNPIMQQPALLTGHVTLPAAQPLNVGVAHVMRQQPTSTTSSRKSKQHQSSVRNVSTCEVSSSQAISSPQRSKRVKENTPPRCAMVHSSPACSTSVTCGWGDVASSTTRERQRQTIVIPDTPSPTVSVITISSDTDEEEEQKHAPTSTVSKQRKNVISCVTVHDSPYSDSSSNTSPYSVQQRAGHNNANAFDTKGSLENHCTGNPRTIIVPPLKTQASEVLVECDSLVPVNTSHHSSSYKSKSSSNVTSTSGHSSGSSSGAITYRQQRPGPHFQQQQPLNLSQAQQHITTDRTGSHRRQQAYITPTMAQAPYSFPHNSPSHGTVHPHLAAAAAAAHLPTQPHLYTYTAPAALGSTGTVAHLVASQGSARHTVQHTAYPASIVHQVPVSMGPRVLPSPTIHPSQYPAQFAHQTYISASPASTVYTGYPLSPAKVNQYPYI
# T25 sequence (P51617 whole entry): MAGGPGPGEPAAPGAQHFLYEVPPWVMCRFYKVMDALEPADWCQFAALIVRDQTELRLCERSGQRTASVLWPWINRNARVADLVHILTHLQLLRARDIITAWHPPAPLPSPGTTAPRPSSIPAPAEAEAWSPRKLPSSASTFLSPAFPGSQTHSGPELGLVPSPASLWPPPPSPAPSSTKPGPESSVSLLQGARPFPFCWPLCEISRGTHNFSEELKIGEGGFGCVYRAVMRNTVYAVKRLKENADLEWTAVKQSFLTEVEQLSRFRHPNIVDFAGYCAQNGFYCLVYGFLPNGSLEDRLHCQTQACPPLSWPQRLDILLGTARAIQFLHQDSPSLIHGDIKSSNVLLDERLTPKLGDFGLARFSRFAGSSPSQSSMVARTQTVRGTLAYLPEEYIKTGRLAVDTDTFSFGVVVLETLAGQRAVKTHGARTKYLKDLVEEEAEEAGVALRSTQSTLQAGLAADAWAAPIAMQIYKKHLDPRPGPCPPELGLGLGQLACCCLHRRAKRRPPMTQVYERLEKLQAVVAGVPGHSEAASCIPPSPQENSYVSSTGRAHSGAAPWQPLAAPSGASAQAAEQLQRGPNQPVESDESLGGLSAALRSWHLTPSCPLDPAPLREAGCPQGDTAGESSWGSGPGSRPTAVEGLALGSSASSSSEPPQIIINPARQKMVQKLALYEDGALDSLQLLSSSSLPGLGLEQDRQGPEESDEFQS
# T24 sequence (Q16620 32-822): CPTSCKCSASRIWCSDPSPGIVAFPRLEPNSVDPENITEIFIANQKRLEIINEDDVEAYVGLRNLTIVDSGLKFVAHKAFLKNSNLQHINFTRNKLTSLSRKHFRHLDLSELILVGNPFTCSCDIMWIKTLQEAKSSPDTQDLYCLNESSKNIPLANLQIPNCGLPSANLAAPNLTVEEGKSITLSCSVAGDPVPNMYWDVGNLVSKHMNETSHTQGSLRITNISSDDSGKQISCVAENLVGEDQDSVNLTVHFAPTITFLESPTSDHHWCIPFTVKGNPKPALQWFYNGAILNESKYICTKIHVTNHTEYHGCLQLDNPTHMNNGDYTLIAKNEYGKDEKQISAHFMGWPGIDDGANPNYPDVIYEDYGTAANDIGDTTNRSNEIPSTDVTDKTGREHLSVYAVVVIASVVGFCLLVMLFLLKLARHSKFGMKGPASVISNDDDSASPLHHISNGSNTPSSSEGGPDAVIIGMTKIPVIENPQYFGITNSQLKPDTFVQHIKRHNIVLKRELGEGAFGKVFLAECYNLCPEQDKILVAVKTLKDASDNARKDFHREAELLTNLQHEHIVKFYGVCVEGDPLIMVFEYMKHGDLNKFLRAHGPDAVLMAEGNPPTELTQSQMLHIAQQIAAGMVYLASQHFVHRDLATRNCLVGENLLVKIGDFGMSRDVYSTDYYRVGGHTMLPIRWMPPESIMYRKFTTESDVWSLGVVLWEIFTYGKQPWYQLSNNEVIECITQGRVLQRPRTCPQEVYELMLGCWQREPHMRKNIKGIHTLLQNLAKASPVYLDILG
# T15 sequence (Q9HAZ1 whole entry): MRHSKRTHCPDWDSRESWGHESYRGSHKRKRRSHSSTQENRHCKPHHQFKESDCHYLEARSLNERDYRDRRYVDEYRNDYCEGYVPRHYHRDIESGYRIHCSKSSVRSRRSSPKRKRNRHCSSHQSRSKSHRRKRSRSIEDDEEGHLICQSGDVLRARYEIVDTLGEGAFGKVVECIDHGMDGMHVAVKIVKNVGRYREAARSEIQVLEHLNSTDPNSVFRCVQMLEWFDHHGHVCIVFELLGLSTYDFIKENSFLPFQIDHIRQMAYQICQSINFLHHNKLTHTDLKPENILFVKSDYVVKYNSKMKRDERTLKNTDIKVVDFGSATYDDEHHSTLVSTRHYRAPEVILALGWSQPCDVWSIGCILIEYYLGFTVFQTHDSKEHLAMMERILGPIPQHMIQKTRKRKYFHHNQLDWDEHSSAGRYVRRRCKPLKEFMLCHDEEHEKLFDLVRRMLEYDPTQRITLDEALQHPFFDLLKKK
smiles,measurement,setting,value
"O=C(O)c1cc(C(F)(F)F)ccc1NCCc1c[nH]c2cc(Br)ccc12 [Compound 5, 2-((2-(6-Bromo-1H-indol-3-yl)ethyl)amino)−5-(trifluoromethyl)benzoic Acid]",activity at 10 µM,[1],102 ± 1.6%
same,activity at 10 µM,[2],96.9 ± 0.2%
same,activity at 10 µM,[3],75.2 ± 1.8%
same,activity at 10 µM,[4],93.4 ± 0.4%
same,activity at 10 µM,[5],95.8 ± 0.2%
same,activity at 10 µM,[6],81.6 ± 0.5%
same,activity at 10 µM,[7],101.7 ± 0.2%
same,activity at 10 µM,[8],87.5 ± 0.7%
same,activity at 10 µM,[9],98.7 ± 0.5%
same,activity at 10 µM,[10],105 ± 1.1%
same,activity at 10 µM,[11],126.6 ± 0.3%
same,activity at 10 µM,[12],85.8 ± 1.6%
same,activity at 10 µM,[13],80.4 ± 1.1%
same,activity at 10 µM,[14],106.5 ± 0.1%
same,activity at 10 µM,[15],97.4 ± 0.8%
same,activity at 10 µM,[16],78.8 ± 0.4%
same,activity at 10 µM,[17],91.9 ± 1.1%
same,activity at 10 µM,[18],98.7 ± 0.5%
same,activity at 10 µM,[19],79.9 ± 0.7%
same,activity at 10 µM,[20]; CDK5/P25,48.6 ± 1.3%
same,activity at 10 µM,[20]; CDK5/P35,88.8 ± 0.3%
same,activity at 10 µM,[21],90.9 ± 0.3%
same,activity at 10 µM,[22],103 ± 3.1%
same,activity at 10 µM,[23],118 ± 3.4%
same,activity at 10 µM,[24],45.4 ± 7.4%
same,activity at 10 µM,[25],102 ± 2.5%
same,activity at 10 µM,[26],89.6 ± 0.4%
same,activity at 10 µM,[27],86.2 ± 1.1%
same,activity at 10 µM,[28],121 ± 3%
same,activity at 10 µM,[29],71.1 ± 2%
same,activity at 10 µM,[30],93.3 ± 0.5%
same,activity at 10 µM,[31],57.6 ± 2%
same,activity at 10 µM,[32],79.2 ± 1.5%
same,activity at 10 µM,[33],110 ± 2.8%
same,activity at 10 µM,[34],96.5 ± 1.8%
same,activity at 10 µM,[35],115.9 ± 0.9%
same,activity at 10 µM,[36]; CDK1/CYCLIN E,60.2 ± 0.3%
same,activity at 10 µM,[36]; CDK1/cyclin A,95.4 ± 0.8%
